Data set [1] is described as follows: Serum levels following oral dosing, dogs. It is filed as in vivo. The settings on record: methyl cellulose formulation, compared to azoles of similar structure.
The nature of data set [2]: Serum levels following oral dosing, monkeys. The format is in vivo. The settings on record: methyl cellulose formulation, compared to azoles of similar structure.
The nature of data set [3]: Serum half life and tissue distribution following O.D. dosing. The format is in vivo, mice, rats, dogs and monkeys.
Data set [4] in a line: Serum levels following oral dosing, rats. The format is in vivo. Particulars: methyl cellulose formulation, compared to azoles of similar structure.
Data set [5] in a line: Serum levels following oral dosing, mice. It is filed as in vivo. The settings on record: methyl cellulose formulation, compared to azoles of similar structure.
A further data set concerns Cryptococcus neoformans. In words: In vitro antifungal activity, broth dilution (MIC/MFC), Cryptococcus neoformans. It is filed as cell-based. The settings on record: 3 strains. (Dilution methods test growth across graded concentrations, often in twofold steps.)
The test system of the next data set is Candida glabrata. In words: In vitro antifungal activity, broth dilution (MIC/MFC), Candida glabrata. The settings on record: 9 strains. It is filed as cell-based.
The subject of the next data set is Dermatophytes. In words: In vitro antifungal activity, broth dilution (MIC/MFC), dermatophytes. It is filed as cell-based, T. rubrum, T. mentagrophytes, and T. tonsurans. Particulars: 6 strains.
A further data set concerns Candida albicans. Kind of data set: In vitro antifungal activity, broth dilution (MIC/MFC), Candida albicans. The settings on record: 26 strains. The format is cell-based.
The subject of another data set is Aspergillus. In words: In vitro antifungal activity, broth dilution (MIC/MFC), Aspergillus. It is filed as cell-based, Aspergillus (flavus, fumigatus and other species). Particulars: 37 strains.
The next data set has as its system Candida krusei. In words: In vitro antifungal activity, broth dilution (MIC/MFC), Candida krusei. It is filed as cell-based. The settings on record: 16 strains.
In data set [6] the test system is Candida tropicalis & stellatoidea. Kind of data set: In vitro antifungal activity, broth dilution (MIC/MFC), Candida tropicalis & stellatoidea. The format is cell-based. Particulars: 5 strains.
Protocol: (§1) The in vitro antifungal activity tests were performed via conventional broth dilution methods in Sabouraud dextrose broth ("SDB") medium and Eagles Minimum Essential Medium ("EMEM") against a large number of fungi. Minimum Inhibitory Concentrations ("MICs") were measured after 24, 48 and 72 hour tests. In many cases, Minimum Fungicidial Concentrations ("MFCS") were measured after 48 and 72 hours.

Protocol for Aspergillus: as §1
Protocol for Candida albicans: as §1
Protocol for Candida glabrata: as §1
Protocol for Candida krusei: as §1
Protocol for Cryptococcus neoformans: as §1

In the case of `CCC(C(C)O)n1ncn(-c2ccc(N3CCN(c4ccc(OCC5COC(Cn6cncn6)(c6ccc(F)cc6F)C5)cc4)CC3)cc2)c1=O` (stereo not drawn) [drawing 21], the serum levels entry in data set [1], in data set [2], in data set [4] and in data set [5] was “consistently higher serum levels” throughout. The tissue distribution result in data set [3] is “good tissue distribution”.
As for `CCC(C(C)O)n1ncn(-c2ccc(N3CCN(c4ccc(OCC5COC(Cn6cncn6)(c6ccc(F)cc6F)C5)cc4)CC3)cc2)c1=O` (stereo not drawn) [drawing 26], the “Percentage of strains with MFCs ≤1 mcg/ml” value in the data set on Cryptococcus neoformans is 100%; with Candida glabrata, 22%; with Dermatophytes it was 67%; in the data set on Candida albicans, 100%; in the data set on Aspergillus, 50%; in the data set on Candida krusei, 88%. The “Percentage of strains with MFCs ≤1 mcg/ml” value in [6] is given as 100%.
As to `CCC(C(C)O)n1ncn(-c2ccc(N3CCN(c4ccc(OCC5COC(Cn6cncn6)(c6ccc(F)cc6F)C5)cc4)CC3)cc2)c1=O` (stereo not drawn) [drawing 30], the “MIC 90 (Minimum Inhibitory Concentrations for 90% of the strains)” value with Cryptococcus neoformans was “.05 MCG/ML”; in the data set with Dermatophytes, “.165 MCG/ML”; in the data set on Candida krusei it was “.058 MCG/ML”; in data set [6], “.117 MCG/ML”.
Take `CCC(C(C)O)n1ncn(-c2ccc(N3CCN(c4ccc(OCC5COC(Cn6cncn6)(c6ccc(F)cc6F)C5)cc4)CC3)cc2)c1=O` (stereo not drawn) [drawing 28]: the “Percentage of strains with MFCs ≤1 mcg/ml” value in the data set with Cryptococcus neoformans is recorded as 100%; in the data set on Candida glabrata, 22%; in the data set on Dermatophytes it was 100%; in the data set on Candida albicans it was 100%; in the data set with Aspergillus, 89%; in the data set on Candida krusei, 100%. In data set [6], the “Percentage of strains with MFCs ≤1 mcg/ml” value came out at 100%.
For `CCC(C(C)O)n1ncn(-c2ccc(N3CCN(c4ccc(OCC5COC(Cn6cncn6)(c6ccc(F)cc6F)C5)cc4)CC3)cc2)c1=O` (stereo not drawn) [drawing 27], the “Percentage of strains with MFCs ≤1 mcg/ml” value in the data set with Cryptococcus neoformans was determined as 100%; with Candida glabrata, 22%; in the data set with Dermatophytes, 83%; with Candida albicans, 100%; with Aspergillus it was 62%; with Candida krusei, 94%. Further, the “Percentage of strains with MFCs ≤1 mcg/ml” value in data set [6] is listed as 100%.
`OC(Cn1cncn1)(Cn1cncn1)c1ccc(F)cc1F` [fluconazole, reference compound]: the “Percentage of strains with MFCs ≤1 mcg/ml” value in the data set on Cryptococcus neoformans worked out at 0%; in the data set on Candida glabrata it was 0%; with Dermatophytes, 0%; in the data set with Candida albicans, 100%; with Aspergillus it was 0%; in the data set on Candida krusei it was 0%. Further, in [6], the “Percentage of strains with MFCs ≤1 mcg/ml” value is 100%. In addition, the “Percentage of strains with MICs ≤1 mcg/ml” value amounted to 0% in the data set on Cryptococcus neoformans; 0% in the data set on Candida glabrata; 100% with Dermatophytes; 100% with Candida albicans; 0% with Aspergillus; 0% in the data set on Candida krusei. In data set [6], the “Percentage of strains with MICs ≤1 mcg/ml” value came to 100%.
On to `CCC(C(C)O)n1ncn(-c2ccc(N3CCN(c4ccc(OCC5COC(Cn6cncn6)(c6ccc(F)cc6F)C5)cc4)CC3)cc2)c1=O` (stereo not drawn) [drawing 32], for which the “MIC 90 (Minimum Inhibitory Concentrations for 90% of the strains)” value is recorded as 28.8 MCG/ML against Candida glabrata; “.707 MCG/ML” with Dermatophytes; “.139 MCG/ML” against Candida albicans; “.112 MCG/ML” in the data set on Aspergillus; “.12 MCG/ML” against Candida krusei; “.354 MCG/ML” in [6].
Take `CCC(C(C)O)n1ncn(-c2ccc(N3CCN(c4ccc(OCC5COC(Cn6cncn6)(c6ccc(F)cc6F)C5)cc4)CC3)cc2)c1=O` (stereo not drawn) [drawing 31]: the “MIC 90 (Minimum Inhibitory Concentrations for 90% of the strains)” value is recorded as “.007 MCG/ML” against Cryptococcus neoformans; 17.1 MCG/ML in the data set on Candida glabrata; “.101 MCG/ML” in the data set with Dermatophytes; “.174 MCG/ML” against Candida albicans; “.096 MCG/ML” with Aspergillus; “.014 MCG/ML” with Candida krusei. Further, in [6], the “MIC 90 (Minimum Inhibitory Concentrations for 90% of the strains)” value was “.117 MCG/ML”.

(Values after US5710154A, “Tetrahydrofuran antifungals” (Schering Corporation, priority 1995, dated 1998).)
